For test [1], the system named is bacterial strains that express KPC β-lactamases. Description: Synergy MIC / standard BLI potentiation MIC assay, strains expressing KPC β-lactamases. The note with it: more active for at least one KPC strain and/or better spectrum; comparator Avibactam. It counts as cell-based, isogenic E. coli and clinical isolates. The procedure, abridged:
(§1)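 Broth microdilution in CAMHB per CLSI M07-A9, ~10^5 CFU/mL inoculum, 18–20 h at 37 °C with aeration; engineered E. coli kept with 25 μg/mL tetracycline. β-lactam 2-fold from 128 to 0.13 μg/mL with BLI fixed at 4 μg/mL, or BLI serially diluted with β-lactam fixed; MIC is lowest concentration without visible turbidity.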

Test [2] relates to bacterial strains that express the class D cephalosporinase OXA-15. Description: Synergy MIC / standard BLI potentiation MIC assay, strains expressing OXA-15. It counts as cell-based, E. coli. Particulars: in presence of a β-lactam; comparator Avibactam (CCC). In short, it runs like this:
as §1

Structures are written as SMILES. Structures can show the parent of a compound that is named as a salt.

We go through 15 molecules from US8933233B2, “1,3,4-oxadiazole and 1,3,4-thiadiazole β-lactamase inhibitors” (priority 2012, dated 2015).

With `O=C1N2C[C@@H](CC[C@H]2c2nnc(C3CNC3)o2)N1OS(=O)(=O)O` [Compound 708, (2S,5R)-2-(5-(azetidin-3-yl)-1,3,4-oxadiazol-2-yl)-7-oxo-1,6-diazabicyclo[3.2.1]octan-6-yl hydrogen sulfate], in test [1], the “activity and/or spectrum of activity against bacterial strains that express KPC β-lactamases, compared with Avibactam” value is “more active than Avibactam”. For the same molecule, the “activity against bacterial strains that express OXA-15, compared with Avibactam” value in test [2] is “more active than Avibactam”.

As for `O=C1N2C[C@@H](CC[C@H]2c2nnc([C@H]3CCNC3)o2)N1OS(=O)(=O)O` [Compound 758, (2S,5R)-7-oxo-2-(5-((S)-pyrrolidin-3-yl)-1,3,4-oxadiazol-2-yl)-1,6-diazabicyclo[3.2.1]octan-6-yl hydrogen sulfate], the “activity and/or spectrum of activity against bacterial strains that express KPC β-lactamases, compared with Avibactam” value in test [1] was “more active than Avibactam”. In addition, the “activity against bacterial strains that express OXA-15, compared with Avibactam” value in test [2] is “more active than Avibactam”.

Take `N=C(N)NC1(Cc2nnc([C@@H]3CC[C@@H]4CN3C(=O)N4OS(=O)(=O)O)o2)CC1` [Compound 739, (2S,5R)-2-(5-((1-guanidinocyclopropyl)methyl)-1,3,4-oxadiazol-2-yl)-7-oxo-1,6-diazabicyclo[3.2.1]octan-6-yl hydrogen sulfate]: the “activity and/or spectrum of activity against bacterial strains that express KPC β-lactamases, compared with Avibactam” value in test [1] is given as “more active than Avibactam”. Besides, in test [2], the “activity against bacterial strains that express OXA-15, compared with Avibactam” value is “more active than Avibactam”.

On to `O=C1N2C[C@@H](CC[C@H]2c2nnc(CCC3CNC3)o2)N1OS(=O)(=O)O` [Compound 742, (2S,5R)-2-(5-(2-(azetidin-3-yl)ethyl)-1,3,4-oxadiazol-2-yl)-7-oxo-1,6-diazabicyclo[3.2.1]octan-6-yl hydrogen sulfate], for which, in test [1], the “activity and/or spectrum of activity against bacterial strains that express KPC β-lactamases, compared with Avibactam” value is “more active than Avibactam”. Further, in test [2], the “activity against bacterial strains that express OXA-15, compared with Avibactam” value is on record as “more active than Avibactam”.

Turning to `N[C@@H]1CC[C@H](c2nnc([C@@H]3CC[C@@H]4CN3C(=O)N4OS(=O)(=O)O)o2)C1` [Compound 729, (2S,5R)-2-(5-((1S,3R)-3-aminocyclopentyl)-1,3,4-oxadiazol-2-yl)-7-oxo-1,6-diazabicyclo[3.2.1]octan-6-yl hydrogen sulfate], the “activity and/or spectrum of activity against bacterial strains that express KPC β-lactamases, compared with Avibactam” value in test [1] is “more active than Avibactam”. For the same molecule, in test [2], the “activity against bacterial strains that express OXA-15, compared with Avibactam” value is given as “more active than Avibactam”.

`N=C(N)Nc1nnc([C@@H]2CC[C@@H]3CN2C(=O)N3OS(=O)(=O)O)o1` [Compound 738, (2S,5R)-2-(5-guanidino-1,3,4-oxadiazol-2-yl)-7-oxo-1,6-diazabicyclo[3.2.1]octan-6-yl hydrogen sulfate]: the “activity and/or spectrum of activity against bacterial strains that express KPC β-lactamases, compared with Avibactam” value in test [1] is given as “more active than Avibactam”. For the same molecule, the “activity against bacterial strains that express OXA-15, compared with Avibactam” value in test [2] is recorded as “more active than Avibactam”.

For `NC1CC(NCc2nnc([C@@H]3CC[C@@H]4CN3C(=O)N4OS(=O)(=O)O)o2)C1` (stereo partly drawn) [Compound 755, (2S,5R)-2-(5-(((3-aminocyclobutyl)amino)methyl)-1,3,4-oxadiazol-2-yl)-7-oxo-1,6-diazabicyclo[3.2.1]octan-6-yl hydrogen sulfate], in test [1], the “activity and/or spectrum of activity against bacterial strains that express KPC β-lactamases, compared with Avibactam” value was “more active than Avibactam”. Also, the “activity against bacterial strains that express OXA-15, compared with Avibactam” value in test [2] is “more active than Avibactam”.

Consider `N[C@H]1C[C@@H](CCc2nnc([C@@H]3CC[C@@H]4CN3C(=O)N4OS(=O)(=O)O)o2)C1` [Compound 754, (2S,5R)-2-(5-(2-((1s,3S)-3-aminocyclobutyl)ethyl)-1,3,4-oxadiazol-2-yl)-7-oxo-1,6-diazabicyclo[3.2.1]octan-6-yl hydrogen sulfate], for which the “activity and/or spectrum of activity against bacterial strains that express KPC β-lactamases, compared with Avibactam” value in test [1] is given as “more active than Avibactam”. The “activity against bacterial strains that express OXA-15, compared with Avibactam” value in test [2] was “more active than Avibactam”.

For the molecule `N[C@H]1CN[C@H](c2nnc([C@@H]3CC[C@@H]4CN3C(=O)N4OS(=O)(=O)O)o2)C1` [Compound 762, (2S,5R)-2-(5-((2S,4R)-4-aminopyrrolidin-2-yl)-1,3,4-oxadiazol-2-yl)-7-oxo-1,6-diazabicyclo[3.2.1]octan-6-yl hydrogen sulfate], in test [1], the “activity and/or spectrum of activity against bacterial strains that express KPC β-lactamases, compared with Avibactam” value is on record as “more active than Avibactam”. For the same molecule, the “activity against bacterial strains that express OXA-15, compared with Avibactam” value in test [2] was “more active than Avibactam”.

On to `N=C(N)N1CC(c2nnc([C@@H]3CC[C@@H]4CN3C(=O)N4OS(=O)(=O)O)o2)C1` [Compound 709, (2S,5R)-2-(5-(1-carbamimidoylazetidin-3-yl)-1,3,4-oxadiazol-2-yl)-7-oxo-1,6-diazabicyclo[3.2.1]octan-6-yl hydrogen sulfate], for which the “activity and/or spectrum of activity against bacterial strains that express KPC β-lactamases, compared with Avibactam” value in test [1] is reported as “more active than Avibactam”. The “activity against bacterial strains that express OXA-15, compared with Avibactam” value in test [2] is reported as “more active than Avibactam”.

With `O=C1N2C[C@@H](CC[C@H]2c2nnc(CCNCCO)o2)N1OS(=O)(=O)O` [Compound 736, (2S,5R)-2-(5-(2-((2-hydroxyethyl)amino)ethyl)-1,3,4-oxadiazol-2-yl)-7-oxo-1,6-diazabicyclo[3.2.1]octan-6-yl hydrogen sulfate], in test [1], the “activity and/or spectrum of activity against bacterial strains that express KPC β-lactamases, compared with Avibactam” value was “more active than Avibactam”. Moreover, in test [2], the “activity against bacterial strains that express OXA-15, compared with Avibactam” value is on record as “more active than Avibactam”.

Turning to `O=C1N2C[C@@H](CC[C@H]2c2nnc(C3CC4(CNC4)C3)o2)N1OS(=O)(=O)O` [Compound 750, (2S,5R)-2-(5-(2-azaspiro[3.3]heptan-6-yl)-1,3,4-oxadiazol-2-yl)-7-oxo-1,6-diazabicyclo[3.2.1]octan-6-yl hydrogen sulfate], the “activity and/or spectrum of activity against bacterial strains that express KPC β-lactamases, compared with Avibactam” value in test [1] is “more active than Avibactam”. Besides, the “activity against bacterial strains that express OXA-15, compared with Avibactam” value in test [2] is on record as “more active than Avibactam”.

For `O=C1N2C[C@@H](CC[C@H]2c2nnc(CCCC3CNC3)o2)N1OS(=O)(=O)O` [Compound 743, (2S,5R)-2-(5-(3-(azetidin-3-yl)propyl)-1,3,4-oxadiazol-2-yl)-7-oxo-1,6-diazabicyclo[3.2.1]octan-6-yl hydrogen sulfate], the “activity and/or spectrum of activity against bacterial strains that express KPC β-lactamases, compared with Avibactam” value in test [1] is recorded as “more active than Avibactam”. Also, in test [2], the “activity against bacterial strains that express OXA-15, compared with Avibactam” value is “more active than Avibactam”.

As to `N=C(N)NC[C@H](O)c1nnc([C@@H]2CC[C@@H]3CN2C(=O)N3OS(=O)(=O)O)o1` [Compound 732, (2S,5R)-2-(5-((S)-2-guanidino-1-hydroxyethyl)-1,3,4-oxadiazol-2-yl)-7-oxo-1,6-diazabicyclo[3.2.1]octan-6-yl hydrogen sulfate], in test [1], the “activity and/or spectrum of activity against bacterial strains that express KPC β-lactamases, compared with Avibactam” value is on record as “more active than Avibactam”. For the same molecule, the “activity against bacterial strains that express OXA-15, compared with Avibactam” value in test [2] is given as “more active than Avibactam”.

As to `N=C(N)NCCc1nnc([C@@H]2CC[C@@H]3CN2C(=O)N3OS(=O)(=O)O)s1` [Compound 794, (2S,5R)-2-(5-(2-guanidinoethyl)-1,3,4-thiadiazol-2-yl)-7-oxo-1,6-diazabicyclo[3.2.1]octan-6-yl hydrogen sulfate], the “activity and/or spectrum of activity against bacterial strains that express KPC β-lactamases, compared with Avibactam” value in test [1] is “more active than Avibactam”. Moreover, in test [2], the “activity against bacterial strains that express OXA-15, compared with Avibactam” value is reported as “more active than Avibactam”.
